Results as given in patent US8883798B2, “Pyrimidine compounds inhibiting the formation of nitric oxide and prostaglandin E2, method of production thereof and use thereof” (Ustav Organicke Chemie a Biochemie Akademie Ved CR, V.V.I., priority 2011, dated 2014).

Experiments:
[1] = tested on: peritoneal cells of mice; experiment: Cell viability of mouse peritoneal cells (WST-1 kit); assay type: cell-based; details: substance 50 μmol·l^−1, 24 h; for Cell viabilities in % of the controls: Table 3B; for Cell viability in % of the controls: Table 3A
In short: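 C57BL/6 mouse peritoneal cells (1×10^6/mL) cultured 24 h with compounds at 50 μmol·l^−1. Viability read with WST-1 tetrazolium salt and expressed as percent of untreated control cells (100%).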

[2] = tested on: production of prostaglandin E2 (PGE2); experiment: Production of prostaglandin E2 (PGE2) in cultures of mouse peritoneal cells stimulated with LPS (ELISA kit); assay type: cell-based, mice; details: for Production of prostaglandins IC50 (μmol · 1^−1) average value and range of values: Table 3B, 6 h; for Production of prostaglandins in % of the controls: Table 3A, substance 50 μmol·l^−1, 6 h
In short: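 C57BL/6 mouse peritoneal cells (3×10^6/mL) stimulated with LPS (10 ng/mL). PGE2 measured by ELISA.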

[3] = tested on: production of nitric oxide (NO); experiment: Production of nitric oxide (NO) in cultures of mouse peritoneal cells stimulated with IFN-γ plus LPS (Griess reagent); assay type: cell-based, mice; details: substance 50 μmol·l^−1, IFN-g plus LPS, 24 h
In short: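 C57BL/6 mouse peritoneal cells (2×10^6/mL) stimulated with IFN-γ (5000 pg/mL) plus LPS (100 pg/mL), compounds at 50 μmol·l^−1. Nitrite measured by Griess reagent after 24 h, expressed as % of stimulated control (set 100%); IC50 is concentration reducing NO by 50%.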

| Compound | Cell viabilities in % of the controls [1] | Production of prostaglandins IC50 (μmol · 1^−1) average value and range of values [2] | Production of nitric oxide in % of the controls ([3]; Table 3B) | Cell viability in % of the controls [1] | Production of prostaglandins in % of the controls [2] | Production of nitric oxide in % of the controls ([3]; Table 3A) |
| --- | --- | --- | --- | --- | --- | --- |
| CCCCc1c(-c2cccnc2)nc(N)nc1-c1cc2ccccc2o1 [Substance 119] | 76.10 ± 6.23; n = 8 % of the controls | 71.89 ± 0.36; n = 2 μmol · 1^−1 | 70.13 ± 10.10; n = 6 % of the controls | – | – | – |
| CCCCc1c(-c2ccccc2)nc(N)nc1-c1cccc2ccccc12 [Substance 133] | 110.75 ± 3.69; n = 4 % of the controls | 61.74 ± 17.48; n = 2 μmol · 1^−1 | 49.60 ± 9.26; n = 4 % of the controls | – | – | – |
| CCCCc1c(-c2cccs2)nc(N)nc1-c1cccs1 [Substance 92] | 102.36 ± 6.45; n = 8 % of the controls | 29.52 ± 11.77; n = 4 μmol · 1^−1 | 46.09 ± 7.92; n = 6 % of the controls | – | – | – |
| C=CCc1c(Cl)nc(NC=O)nc1Cl [Substance 57] | – | – | – | 95.37 ± 15.40 % of the controls | 16.42 ± 0.64 % of the controls | 1.21 ± 0.28 % of the controls |
| CCCCc1c(-c2ccco2)nc(N)nc1-c1cc2ccccc2s1 [Substance 131] | 98.88 ± 1.65; n = 8 % of the controls | 83.56 ± 5.83; n = 4 μmol · 1^−1 | 49.76 ± 4.85; n = 4 % of the controls | – | – | – |
| CCCCc1c(-c2ccco2)nc(N)nc1-c1cc2ccccc2o1 [Substance 122] | 81.66 ± 4.41; n = 8 % of the controls | 68.47 ± 8.71; n = 2 μmol · 1^−1 | 35.04 ± 5.71; n = 6 % of the controls | – | – | – |
| CCCCc1c(-c2ccccc2)nc(N)nc1-c1ccsc1 [Substance 107] | 69.08 ± 1.78; n = 4 % of the controls | 68.07 ± 2.56; n = 4 μmol · 1^−1 | 69.69 ± 6.09; n = 4 % of the controls | – | – | – |
| CC(C)c1c(Cl)nc(N=CN(C)C)nc1Cl [Substance 16] | – | – | – | 134.83 ± 16.51 % of the controls | 32.10 ± 2.31 % of the controls | 7.32 ± 2.68 % of the controls |
| O=CNc1nc(Cl)c(-c2ccccc2)c(Cl)n1 [Substance 56] | – | – | – | 48.49 ± 4.44 % of the controls | 46.40 ± 0.28 % of the controls | 0.80 ± 0.37 % of the controls |
| CCCCc1c(Cl)nc(N)nc1-c1ccco1 [Substance 101] | 68.95 ± 3.02; n = 8 % of the controls | 6.60 ± 5.34; n = 4 μmol · 1^−1 | 29.35 ± 6.38; n = 6 % of the controls | – | – | – |
| CCCCc1c(-c2ccccc2)nc(N)nc1-c1ccccc1 [Substance 67] | 93.60 ± 2.81; n = 4 % of the controls | 76.75 ± 10.63; n = 4 μmol · 1^−1 | 80.37 ± 1.36; n = 4 % of the controls | – | – | – |
| CCCCc1c(-c2cc3ccccc3o2)nc(N)nc1-c1cccs1 [Substance 121] | 90.22 ± 7.99; n = 12 % of the controls | 62.54 ± 21.79; n = 6 μmol · 1^−1 | 55.17 ± 7.88; n = 10 % of the controls | – | – | – |
| CCCCc1c(Cl)nc(N)nc1-c1cccnc1 [Substance 82] | 45.38 ± 2.92; n = 12 % of the controls | 92.02 ± 8.95; n = 4 μmol · 1^−1 | 12.07 ± 2.39; n = 8 % of the controls | – | – | – |
| CCCCc1c(-c2cccc3ccccc23)nc(N)nc1-c1cccc2ccccc12 [Substance 141] | 107.73 ± 5.36; n = 8 % of the controls | 34.2 ± 8.01; n = 4 μmol · 1^−1 | 57.66 ± 6.53; n = 6 % of the controls | – | – | – |
| O=CNc1nc(Cl)c(Cc2ccccc2)c(Cl)n1 [Substance 59] | – | – | – | 58.75 ± 5.34 % of the controls | 3.84 ± 0.11 % of the controls | 0.15 ± 0.01 % of the controls |
| CCCCc1c(-c2ccncc2)nc(N)nc1-c1cc2ccccc2o1 [Substance 120] | 92.51 ± 2.77; n = 4 % of the controls | 83.44 ± 11.03; n = 2 μmol · 1^−1 | 65.32 ± 3.72; n = 4 % of the controls | – | – | – |
| CCCCc1c(-c2cccnc2)nc(N)nc1-c1cccs1 [Substance 90] | 69.80 ± 6.79; n = 4 % of the controls | 31.93 ± 15.87; n = 4 μmol · 1^−1 | 50.11 ± 3.95; n = 4 % of the controls | – | – | – |
| CCCCc1c(-c2ccc(OC)cc2)nc(N)nc1-c1cccc2ccccc12 [Substance 134] | 93.40 ± 5.59; n = 12 % of the controls | 27.85 ± 10.82; n = 8 μmol · 1^−1 | 33.09 ± 7.25; n = 8 % of the controls | – | – | – |
| CCCCc1c(-c2ccncc2)nc(N)nc1-c1ccco1 [Substance 98] | 69.84 ± 3.62; n = 8 % of the controls | 62.49 ± 11.98; n = 4 μmol · 1^−1 | 54.42 ± 2.64; n = 6 % of the controls | – | – | – |
| CCCCc1c(Cl)nc(N)nc1-c1ccc(OC)cc1 [Substance 75] | 86.35 ± 9.29; n = 8 % of the controls | 4.7 ± 1.17; n = 4 μmol · 1^−1 | 15.96 ± 4.83; n = 4 % of the controls | – | – | – |
| CCCCc1c(-c2ccc(OC)cc2)nc(N)nc1-c1ccco1 [Substance 96] | 113.53 ± 4.93; n = 8 % of the controls | 43.05 ± 21.74; n = 4 μmol · 1^−1 | 50.99 ± 2.60; n = 4 % of the controls | – | – | – |
| C=CCc1c(Cl)nc(N)nc1Cl [Substance 32] | – | – | – | 93.55 ± 19.55 % of the controls | 90.81 ± 5.95 % of the controls | 41.72 ± 9.27 % of the controls |
| Cc1c(Cl)nc(NC=O)nc1Cl [Substance 48] | – | – | – | 66.37 ± 8.13 % of the controls | 36.31 ± 1.99 % of the controls | 1.35 ± 0.01 % of the controls |
| CCCCc1c(-c2ccccc2)nc(N)nc1-c1ccoc1 [Substance 102] | 110.35 ± 5.69; n = 8 % of the controls | 54.8 ± 10.70; n = 6 μmol · 1^−1 | 68.34 ± 4.63; n = 6 % of the controls | – | – | – |
| CCCCc1c(Cl)nc(NCc2ccco2)nc1Cl [Substance 144] | 150.27 ± 4.96; n = 8 % of the controls | 0.20 ± 0.33; n = 4 μmol · 1^−1 | 83.33 ± 11.72; n = 6 % of the controls | – | – | – |
